Experimental data: patent US20160058787A1 (priority 2014, published 2016)

Conditions: in vivo

## sodium polystyrene sulfonate [NSPS]
  reduction of the toxicity and adverse effects of SPS: over 100 folds
